We go through 1 compound from ChEMBL document CHEMBL2146391, “Glucose uptake stimulatory effect of 4-hydroxypipecolic acid by increased GLUT 4 translocation in skeletal muscle cells” (Bioorg Med Chem Lett, 2012).

Calls of active or inactive are those of the source. The calls are words filed in the database; no cut-off is given here.

In series [1] the test system is L6. The series can be described thus: Induction of GLUT4 mRNA expression in rat L6-GLUT4myc myotubes at 25 uM after 16 hrs by semiquantitative RT-PCR analysis. The format is functional, cell-based.
Series [2] has as its system L6. The series can be described thus: Induction of PKB mRNA expression in rat L6-GLUT4myc myotubes at 25 uM after 16 hrs by semiquantitative RT-PCR analysis. The format is functional, cell-based.
Series [3] concerns L6. The series can be described thus: Induction of IRS-1 mRNA expression in rat L6-GLUT4myc myotubes at 25 uM after 16 hrs by semiquantitative RT-PCR analysis. The format is functional, cell-based.
Series [4] deals with L6. Briefly: Increase of insulin-stimulated GLUT4 translocation from intracellular compartment into plasma membrane of rat L6-GLUT4myc myotubes at 25 uM after 16 hrs by O-phenylenediamide based enzymatic assay in presence of PI3K inhibitor wortmannin. Type of series: functional, cell-based.
The subject of series [5] is L6. The series can be described thus: Increase of insulin-stimulated GLUT4 translocation from intracellular compartment into plasma membrane of rat L6-GLUT4myc myotubes at 25 uM after 16 hrs by O-phenylenediamide based enzymatic assay. The format is functional, cell-based.
The subject of series [6] is L6. Briefly: Cytotoxicity against rat L6-GLUT4myc myotubes assessed as change in protein level at 25 uM after 16 hrs. The format is cell-based. Conditions: l6, 16 h.
Series [7] deals with L6. The series can be described thus: Cytotoxicity against rat L6-GLUT4myc myotubes assessed as cell viability at 25 uM after 16 hrs by MTT assay. Type of series: cell-based. Conditions: l6, 16 h.
Series [8] has as its system L6. Briefly: Induction of GLUT4 translocation from intracellular compartment into plasma membrane of rat L6-GLUT4myc myotubes at 25 uM after 16 hrs by O-phenylenediamide based enzymatic assay relative to control. The format is functional.
Series [9] has as its system L6. Briefly: Induction of GLUT4 translocation from intracellular compartment into plasma membrane of rat L6-GLUT4myc myotubes at 10 uM after 16 hrs by O-phenylenediamide based enzymatic assay. The format is functional, cell-based.
Series [10] has as its system L6. Briefly: Induction of GLUT4 translocation from intracellular compartment into plasma membrane of rat L6-GLUT4myc myotubes at 25 uM by O-phenylenediamide based enzymatic assay relative to control. Type of series: functional, cell-based. The conditions noted are these: TDE = time-dependent effect.
Series [11] relates to L6. Briefly: Induction of GLUT4 translocation from intracellular compartment into plasma membrane of rat L6-GLUT4myc myotubes after 16 hrs by O-phenylenediamide based enzymatic assay. Type of series: functional, cell-based.
The subject of series [12] is L6. The series can be described thus: Hypoglycemic activity in rat L6-GLUT4myc myotubes assessed as increase in 2-[3H]-deoxyglucose uptake at 25 uM after 16 hrs by scintillation counter relative to control. The format is functional.
Series [13] concerns L6. Briefly: Hypoglycemic activity in rat L6-GLUT4myc myotubes assessed as increase in 2-[3H]-deoxyglucose uptake at 5 uM after 16 hrs by scintillation counter. The format is functional, cell-based.
The subject of series [14] is L6. Briefly: Hypoglycemic activity in rat L6-GLUT4myc myotubes assessed as increase in 2-[3H]-deoxyglucose uptake after 16 hrs by scintillation counter. Type of series: functional, cell-based.

`O=C(O)C1C[C@@H](O)CCN1` (some centres undefined): the result in [1], in series [2] and in series [4] was inactive. Also, the result in series [3], in series [5], in series [9] and in series [13] was Active. Moreover, the Activity entry is “Non-toxic” in series [6]; “Non-toxic” in [7]; 130% in series [8]; “tde” in series [10]; “Dose-dependent effect” in [11]; “Dose-dependent effect” in [14]. Further, in series [12], the “fold change (FC)” value amounted to 1.25.
